Results on three molecules are retold here after paper PMC2662459, “Developmental Toxicity of Ochratoxin A in Rat Embryo Midbrain Micromass Cultures” (International Journal of Molecular Sciences, 2008).

The nature of series [1]: in vitro. Format: cell-based. Conditions: Wistar albino, rat. The method, then: (§1) This study was carried out according to compliance with bioethical principles. Wistar albino rats were housed under standard laboratory condition of lighting (12 h dark/12 h light), temperature (20 ± 2 °C), and relative humidity (50 – 60%) with free access to commercial feed (Murigan) and tap water. Animals (10–12 week old) were mated overnight and the appearance of a vaginal plug on the next morning was considered as day one of pregnancy. Rat embryos were collected on day 13 of gestation. Procedures were followed essentially as described in INVITTOX Protocol No. 114 [23].
Tissues were pooled from a number of embryos, washed and incubated for 20 min at 37 °C in sequence in Earle’s balanced salt solution calcium and magnesium-free (CMF, GIBCO), and 1% trypsin (GIBCO) in CMF. Then the tissues were washed in CMF and culture medium (Ham’s F-12 nutrient mixture: foetal bovine serum: L-glutamine: penicillin/streptomycin - 88:10:1:1 v/v – all materials were from GIBCO). […] Viable cells density was assessed by trypan blue exclusion assay using Bürker’s haemocytometer. […]
Cytotoxicity was quantified using neutral red uptake test (NRU). […] The eluted stain intensity (optical density, OD) was measured at 540 nm following at least 2 h incubation. Surviving cell number was directly related to the absorbance of the eluted stain. […]

For series [2], the system named is βIII tubulin expression (neurons in early stage of development). As to the kind of experiment: Differentiation, immunoenzymatic determination of βIII-tubulin expression. Format: cell-based, rat. As to conditions: for Inhibition of differentiation, ID50: Expression of βIII tubulin (OD, 450 nm): five days exposure, mean±SD from 3 independent experiments. The method, then:
as §1
(§2) Tissues were pooled from a number of embryos, washed and incubated for 20 min at 37 °C in sequence in Earle’s balanced salt solution calcium and magnesium-free (CMF, GIBCO), and 1% trypsin (GIBCO) in CMF. Then the tissues were washed in CMF and culture medium (Ham’s F-12 nutrient mixture: foetal bovine serum: L-glutamine: penicillin/streptomycin - 88:10:1:1 v/v – all materials were from GIBCO). A single cell suspension was ensured by mechanical dissociation followed by passing the suspension through sterile 10 μm nylon mesh. Viable cells density was assessed by trypan blue exclusion assay using Bürker’s haemocytometer.
(§3) High-cell-density cultures were set up carefully as a 5–10 μL drop in the centre of each well of 96-well fibronectin coated microplate (BECTON DICKINSON), so that number of cells /well was 5 × 10^4. After 2 h incubation (37°C, 5% CO2) the cells were exposed to different concentrations of tested compounds and incubated five days. […]
(§4) To indicate the target cells damaged, immunofluorescent (IF) and immunoenzymatic (IE) staining was performed. […] IF staining fluorescence was examined using a fluorescent microscope (λ = 490 nm). In IE staining, a substrate (3,3’,5,5’-tetramethylbenzidine, SIGMA) was added (100 μL/well) and reaction was evaluated for 30 min at room temperature. […] The expression level of particular proteins was determined by measuring optical density at 450 nm. […]

Series [3] concerns MAP2 expression (neurons in late stage of development). As to the kind of experiment: Differentiation, immunoenzymatic determination of MAP2 expression. Conditions: for Inhibition of differentiation, ID50: Expression of MAP2 (OD, 450 nm): five days exposure, mean±SD from 3 independent experiments. The format is cell-based, rat. The procedure:
as §1, §2, §3, §4

The subject of series [4] is GFAP expression (astrocytes). The series can be described thus: Differentiation, immunoenzymatic determination of GFAP expression. The format is cell-based, rat. Conditions: for Inhibition of differentiation, ID50: Expression of GFAP (OD, 450 nm): five days exposure, mean±SD from 3 independent experiments. The procedure: as §1, §2, §3, §4
Series [5] deals with rat embryo midbrain micromass cultures. The format is cell-based. The method, then:
(§5) The values of drug concentration, which inhibited cells viability by 50% (IC50) and reduced differentiation by 50% (ID50) when compared to unexposed control cells, were calculated according to Hill’s equation (sigmoidal model of concentration-response curve). Statistically significant differences between mean values obtained in immunoenzymatic analysis were determined based on analysis of variance (ANOVA) followed by Tukey – Kramer post-hoc test. Values of P < 0.05 were considered as statistically significant. All calculations were done using LSW Data Analysis Toolbox ver. 1.1.1. (MDL® Information Systems, Inc.) in Microsoft Excel 2000 spreadsheet and Kyplot software (Koichi Yoshioka, version 2.0 beta 4). In order to classify embryotoxic potential the mean inhibition concentrations for differentiation (ID50) of test chemical was used and the biostatistically based prediction model (PM) was applied. It is based on the linear discriminate analysis of three functions: function I: 6.65 × log (ID50)–9.49; function II: 6.16 × log (ID50)–8.29; function III: –1.31 × log (ID50)–1.42. The function providing the highest value was used to determine the class of embryotoxicity (class 1 – non-embryotoxic, class 2 – weakly embryotoxic, class 3 – strongly embryotoxic).

Series [6] relates to rat embryo midbrain micromass cultures (neurospheres). As to the kind of experiment: Differentiation, computerised image analysis of haematoxylin stained neurospheres. Format: cell-based. The method, then: as §1, §2
High-cell-density cultures were set up carefully as a 5–10 μL drop in the centre of each well of 96-well fibronectin coated microplate (BECTON DICKINSON), so that number of cells /well was 5 × 10^4. After 2 h incubation (37°C, 5% CO2) the cells were exposed to different concentrations of tested compounds and incubated five days. Then dual assessment i.e. cytotoxicity and an impact of tested compound on cells differentiation (embryotoxicity) were done in the same cultures.
After removing the eluted solution, the cells were fixed in 10% formaldehyde for 20 min and stained (approximately 10 s) with Gill’s haematoxylin. Morphometric analysis was performed on digitised images of cells taken with Nikon SMZ stereoscopic microscope linked to Panasonic CCD BP-KR 222E colour camera. The number of neurospheres (containing differentiated neural cells) was counted and their total and individual area was measured using computer image analysis software (LUCIA Measurement System).
as §5, with “It is based on the linear discriminate analysis of three functions: function I: 6.65 × log (ID50)–9.49; function II: 6.16 × log (ID50)–8.29; function III: –1.31 × log (ID50)–1.42.” left out

Series [7] concerns neurons and astrocytes of ventral mesencephalon. Conditions: protein and DNA synthesis, rat embryo brain aged 15–16 days, cited from earlier work.
Series [8] relates to neurons and astrocytes of cerebellum. Conditions: protein and DNA synthesis, rat embryo brain aged 15–16 days, cited from earlier work.
The subject of series [9] is foetuses of pregnant rats. Conditions: single oral dose; cited from earlier work.
In series [10] the test system is mice offspring brain. As to conditions: three month mice offspring exposed prenatally; cited from earlier work.
The mark [11] stands for this setting: five days exposure, computerised image analysis, mean±SD from 3 independent experiments.

Structures are written as SMILES. Converted amounts (≈) assume the structure as drawn. Structures can show the parent of a compound that is named as a salt. Where two headings read alike, the source gives them in different places.

As for `O=c1[nH]cc(F)c(=O)[nH]1` [5-FU, 5-fluorouracil, reference compound], in series [1], the IC50 was 0.15 ± 0.01 µg/mL (≈ 1.15 µM). In series [2], the “Inhibition of differentiation, ID50: Expression of βIII tubulin (OD, 450 nm)” value was found to be 0.14 ± 0.010 µg/mL. The “Inhibition of differentiation, ID50: Expression of MAP2 (OD, 450 nm)” value in series [3] stood at 0.16 ± 0.010 µg/mL. Further, in series [4], the “Inhibition of differentiation, ID50: Expression of GFAP (OD, 450 nm)” value is 0.18 ± 0.012 µg/mL. Besides, in series [5] (rat), the “Class of embryotoxicity (prediction model)” value (“Class … (prediction model)” below) is on record as “class 3”.
For `C[C@@H]1Cc2c(Cl)cc(C(=O)N[C@@H](Cc3ccccc3)C(=O)O)c(O)c2C(=O)O1` [OTA, ochratoxin A], the IC50 at 5 days in series [1] (five days exposure, mean±SD from 3 independent experiments, read-out: Cytotoxicity IC50 (Viability, Neutral Red OD, 540 nm)) is 2.52 ± 0.062 µg/mL (≈ 6.24 µM). Moreover, in series [6] (NRU IC50 over ID50), the “IC50/ID50 ratio: Number of neurospheres” value is 0.7, the “IC50/ID50 ratio: Particular area of neurospheres” value was found to be 1.9 and the “IC50/ID50 ratio: Total area of neurospheres” value was 1.1. In series [6] (setting [11]), the “Inhibition of differentiation, ID50: Number of neurospheres” value came to 3.40 ± 1.100 µg/mL; the “Inhibition of differentiation, ID50: Particular area of neurospheres” value was 1.29 ± 0.923 µg/mL; the “Inhibition of differentiation, ID50: Total area of neurospheres” value is 2.19 ± 0.245 µg/mL. Moreover, the “Differentiated cells after exposure to the two highest concentrations” value in series [6] (two highest concentrations, 5 days, haematoxylin staining) is given as “no differentiated cells were observed”. Besides, the “IC50/ID50 ratio: βIII tubulin” value in series [2] (NRU IC50 over ID50) amounted to 0.5. The “Inhibition of differentiation, ID50: Expression of βIII tubulin (OD, 450 nm)” value in series [2] came to 4.84 ± 0.581 µg/mL. Moreover, the “IC50/ID50 ratio: MAP2” value in [3] (NRU IC50 over ID50) came to 0.6. For the same molecule, in series [3], the “Inhibition of differentiation, ID50: Expression of MAP2 (OD, 450 nm)” value was found to be 3.90 ± 0.350 µg/mL. Also, in series [4] (NRU IC50 over ID50), the “IC50/ID50 ratio: GFAP” value came out at 0.5. In addition, the “Inhibition of differentiation, ID50: Expression of GFAP (OD, 450 nm)” value in [4] is 4.87 ± 0.351 µg/mL. For the same molecule, the “IC50/ID50 ratio, all endpoints” value in [5] (all differentiation endpoints) was < 2. Moreover, the “ID50, all endpoints of differentiation” value in series [5] (for all endpoints) is < 10 µg/mL. In addition, in [5] (function with highest value from ID50), the “Class … (prediction model)” value is on record as “class 3”. In series [7], the “Median inhibition concentration, astrocytes ventral mesencephalon” value was ~16.2 ± 2.15 µg/mL and the “Median inhibition concentration, neurons ventral mesencephalon” value was ~5.6 ± 0.40 µg/mL. Also, the IC50 in series [7] (read-out: Median inhibition concentration, astrocytes ventral mesencephalon) is ~40 µM. Besides, the IC50 in series [7] (read-out: Median inhibition concentration, neurons ventral mesencephalon) is ~14 µM. Moreover, in series [8], the “Median inhibition concentration, astrocytes cerebellum” value was ~27.9 ± 3.6 µg/mL and the “Median inhibition concentration, neurons cerebellum” value is ~9.7 ± 2.8 µg/mL. Further, in [8] (read-out: Median inhibition concentration, astrocytes cerebellum), the IC50 is ~69 µM. The IC50 in series [8] (read-out: Median inhibition concentration, neurons cerebellum) is ~24 µM. Further, the “Minimum effective teratogenic dose” value in series [9] is 2.75 mg/kg b.w. Further, in [10], the “Tissue weight and DNA content, cerebral hemispheres” value is 80 % of control; the “Tissue weight and DNA content, remainder of the brain” value is 90 % of control.
With `CC1(C)S[C@@H]2[C@H](NC(=O)Cc3ccccc3)C(=O)N2[C@H]1C(=O)O` [Pen-G, Penicillin G sodium salt, reference compound], in [5], the “Embryotoxicity at fixed concentration” value is “not embryotoxic”. Besides, the “Class … (prediction model)” value in [5] (rat) is “class 1”.
